According to the RepoRT retention time repository (doi:10.1021/acs.analchem.2c02893):

Assay: RP, Thermo Scientific Acclaim RSLC 120 C18, 100 × 2.1 mm, 2.2 µm, 30 °C, 0.2 mL/min, estimated dead time 1.1 min; A: 90% water + 10% methanol + 0.01% formic acid + 5 mM ammonium formate, pH 3.61; B: methanol + 0.01% formic acid + 5 mM ammonium formate, pH 3.61; gradient (min/%B) 0/1 1/1 2/39 13/99.9 15/99.9 15.1/1 20.1/1
Details: stereoisomer not certain
With `CNC(C)Cc1ccc(O)c(O)c1` (stereo not drawn) [HHMA] the LC retention time was 2.59 min. With `CC(C)C(Br)C(=O)NC(N)=O` (stereo not drawn) [Bromural (Bromisoval)] the LC retention time was 6.17 min. For `CC(N)Cc1ccccc1F` (stereo not drawn) [Amphetamine (2-F-)], the LC retention time was 4.24 min. Work on `COc1ccc2c(c1)N(CC(C)CN(C)C)c1ccccc1S2` (stereo not drawn) [Levomepromazine] yielded an LC retention time of 8.14 min. Work on `CNC(=O)Oc1cccc(N=CN(C)C)c1` [Formetanate] yielded an LC retention time of 3.14 min. `CCC(=C(c1ccc(O)cc1)c1ccc(OCCN(C)C)cc1)c1ccccc1` [4-Hydroxytamoxifen] showed an LC retention time of 9.1 min. In the case of `CC(C)c1cc(Oc2ccccc2)cc(C(C)C)c1NC(=S)NC(C)(C)C` [Diafenthiuron], the LC retention time is reported as 12.9 min. In the case of `CC(C)OC(=O)C(O)(c1ccc(Cl)cc1)c1ccc(Cl)cc1` [Chloropropylate], the LC retention time is reported as 12.2 min. In the case of `O=c1[nH]c2ccccc2n1CCCN1CCN(C(c2ccccc2)c2ccccc2)CC1` [Oxatomide], the LC retention time is reported as 8.42 min. With `CN1CCCC(n2nc(Cc3ccc(Cl)cc3)c3ccccc3c2=O)CC1` (stereo not drawn) [Azelastine] the LC retention time was 7.59 min. `COC(=O)C(C)Oc1ccc(Cl)cc1C` (stereo not drawn) [Mecoprop-methylester] showed an LC retention time of 10.6 min. `CN1CCN(c2cc3c(cc2F)c(=O)c(C(=O)O)cn3-c2ccc(F)cc2)CC1` [Difloxacin] gave an LC retention time of 4.96 min. With `CCCc1nn(C)c2c(=O)[nH]c(-c3cc(S(=O)(=O)N4CCN(Cc5ccccc5)CC4)ccc3OCC)nc12` [Sildenafil-Benzyl] the LC retention time was 11.5 min. Work on `c1nc[nH]n1` [1,2,4-Triazole] yielded an LC retention time of 1.56 min. Work on `CC(C)(C)N1CCC(c2ccccc2)(c2ccccc2)CC1` [Budipine] yielded an LC retention time of 6.72 min. In the case of `CC(C)(C)C(O)C(=Cc1ccc(Cl)cc1)n1cncn1` (stereo not drawn) [Uniconazole], the LC retention time is reported as 10.5 min. `CSc1nc2cc(Oc3cccc(Cl)c3Cl)c(Cl)cc2[nH]1` [Triclabendazole] showed an LC retention time of 12 min. Compound `CNC(CC(C)C)C1(c2ccc(Cl)cc2)CCC1` (stereo not drawn) [Sibutramine-Nor] has an LC retention time of 8.68 min. Work on `CC(C(=O)c1ccc2c(c1)OCO2)N1CCCC1` (stereo not drawn) [MDPPP (3-4-Methylenedioxy-a-pyrrolidinopropiophenone)] yielded an LC retention time of 4.13 min. `CCc1cccc(CC)c1N(COC)C(=O)CCl` [Alachlor] gave an LC retention time of 10.3 min. `CN(C)CC(CN1c2ccccc2Sc2ccccc21)N(C)C` (stereo not drawn) [Promazine-amino] showed an LC retention time of 8.54 min. Compound `CC(Cc1ccccc1)NCCn1cnc2c1c(=O)n(C)c(=O)n2C` (stereo not drawn) [Fenethylline] has an LC retention time of 5.06 min. `CNC(C)C(=O)c1ccc(F)cc1` (stereo not drawn) [Methcathinone (4-F-/ 4-FMC. Flephedrone)] gave an LC retention time of 3.91 min. Compound `O=C1CN=C(c2ccccc2Cl)c2cc(Br)ccc2N1` [Phenazepam] has an LC retention time of 8.93 min. `CN1CC2c3ccccc3Oc3ccc(Cl)cc3C2C1` (stereo not drawn) [Asenapine] gave an LC retention time of 7.39 min. Compound `CCCN(CC)CC1COC2(CCC(C(C)(C)C)CC2)O1` (stereo not drawn) [Spiroxamine] has an LC retention time of 9.32 min. In the case of `COP(=S)(OC)SCC(=O)N(c1ccc(Cl)cc1)C(C)C` [Anilofos], the LC retention time is reported as 10.8 min. Compound `CC(Cc1ccccc1)N1C=C(NC(=O)N=C2C=CC(=O)C=C2)ON1` (stereo not drawn) [Mesocarb-P-Hydroxy] has an LC retention time of 7.24 min. In the case of `CC(C)=NOCCOC(=O)C(C)Oc1ccc(Oc2cnc3cc(Cl)ccc3n2)cc1` (stereo not drawn) [Propaquizafop], the LC retention time is reported as 12.3 min. With `CN1CCN(CCCN2c3ccccc3Sc3ccc(S(=O)(=O)N(C)C)cc32)CC1` [Thioproperazine] the LC retention time was 8.15 min. For `COCCCOc1ccnc(CS(=O)c2nc3ccccc3[nH]2)c1C` (stereo not drawn) [Rabeprazole], the LC retention time was 7.52 min. Work on `O=c1[nH]c2ccccc2s1` [Benzothiazole -2-OH] yielded an LC retention time of 6.53 min. For `O=C1Nc2ccc(Br)cc2C(c2ccccc2Cl)=NC1O` (stereo not drawn) [Phenazepam- 3-Hydroxy], the LC retention time was 8.34 min. With `CCOC(=O)N(C)C(=O)CSP(=S)(OCC)OCC` [Mecarbam] the LC retention time was 10.2 min. Compound `COc1ccc2[nH]c(C)c(CCN(C)C)c2c1` [MeO-TMT (5-)] has an LC retention time of 4.19 min. Work on `CNCC12CCC(c3ccccc31)c1ccccc12` [Benzoctamine] yielded an LC retention time of 6.52 min. In the case of `COC(=O)COc1cc(Cl)c(Cl)cc1Cl` [2.4.5-T-methylester], the LC retention time is reported as 10.8 min. Work on `CCN1CCCC1CNC(=O)c1cc(S(N)(=O)=O)ccc1OC` (stereo not drawn) [Sulpiride] yielded an LC retention time of 2.94 min. Work on `CC1CC2C3CCC4=CC(=O)C=CC4(C)C3(F)C(O)CC2(C)C1(O)C(=O)CCl` (stereo not drawn) [Clobetasol] yielded an LC retention time of 9.44 min. `CCC(=C(c1ccccc1)c1ccc(OCCN(C)C)cc1)c1ccccc1` [Tamoxifen] gave an LC retention time of 11 min. `O=C(c1cccc(F)c1)N1CCC(N2CCN(c3ccccc3)CC2)CC1` [CC-2201] gave an LC retention time of 11.3 min. Work on `CC(C)(C)C(O)C(Oc1ccc(-c2ccccc2)cc1)n1cncn1` (stereo not drawn) [Bitertanol] yielded an LC retention time of 11.3 min. With `COc1ccc2c(c1)c(CC(=O)O)c(C)n2C(=O)c1ccc(Cl)cc1` [Indomethacin] the LC retention time was 10.3 min.
